US11083737B1, “Methods of administering deflazacort therapy” (PTC Therapeutics, Inc., priority 2016, dated 2021)

Legend:
[1] = Phase 1 open label pharmacokinetic study of oral deflazacort tablets (0.9 mg/kg/day, 8 days) in children and adolescents with DMD; type: in vivo, human; details: for geometric mean terminal elimination half-life: Day 1; for time by which plasma concentrations were quantifiable (first post-dose sample): all children and adolescents, Days 1 and 8
Procedure: FIG. 1 is a line graph illustrating mean plasma 21-desDFZ (active deflazacort metabolite) concentration (ng/mL; y-axis) vs. time (hours; x-axis) overlaid by study population on Day 8 (linear scale; circles=adolescent; triangles=child). Children (ages 5-11, inclusive) and adolescents (ages 12-16, inclusive) were administered the weight-based regimen of 0.9 mg/kg/day deflazacort orally once daily for 8 days. Blood samples were collected through eight hours post-dose. Blood samples were processed to plasma and concentrations of 21-desDFZ were measured using validated bioanalytical assays.
Pharmacokinetic analysis was performed as part of an open label, Phase 1 single-period study. Twenty-six (26) male DMD subjects were enrolled, consisting of children (ages 4 up to 12) and adolescents (ages 12 to 16, inclusive) with at least 12 subjects between the ages of 4 and 12 (children). The primary objective of the study was characterization of the single-dose and steady-state PK of deflazacort and its active deflazacort metabolite (21-desDFZ). The characterization of the PK of the 21-desDFZ metabolite 6β-OH-21-desDFZ was included as a secondary outcome. A total of 24 subjects (16 children and 8 adolescents) received deflazacort tablets (0.9 mg/kg/day) for 8 days. Blood samples for PK profiles were collected on Days 1 and 8. All 24 subjects who completed the study had sufficient data to use in the PK analysis. Plasma 21-desDFZ concentrations were quantifiable by the time of the first post-dose sample collection (0.5 hours) in all children and adolescents on Days 1 and 8. Plasma 21-desDFZ concentrations remained above the limit of quantification in most subjects over the 8-hour sampling window on both study days.

[2] = Applicants' clinical observation of deflazacort in ambulatory and non-ambulatory DMD patients; type: in vivo, human; details: as early as six weeks after treatment initiation, preserved up to 24-months
[3] = Day 1, deflazacort 0.9 mg/kg/day orally
[4] = Day 8, deflazacort 0.9 mg/kg/day orally
[5] = Days 1 and 8, deflazacort 0.9 mg/kg/day orally
[6] = after a single oral dose of deflazacort and at steady-state

Structure (SMILES) | geometric mean Cmax, adolescents relative to children [1, 3] | geometric mean Cmax, adolescents relative to children [1, 4] | geometric mean AUCinf, adolescents relative to children [1, 5] | geometric mean AUClast, adolescents relative to children [1, 5] | geometric mean terminal elimination half-life ([1]; adolescents) | time by which plasma concentrations were quantifiable (first post-dose sample) [1] | geometric mean terminal elimination half-life ([1]; children) | mean plasma concentration in children as percent of that observed in adolescents ([1]; about one hour following administration, Day 8, deflazacort 0.9 mg/kg/day orally) | clearance (CL/F), children vs adolescents [1, 6] | volume of distribution (Vd/F), children vs adolescents [1, 6] | muscle strength in ambulatory and non-ambulatory patients [2]
CC1=N[C@]2(C(=O)CO)[C@@H](C[C@H]3[C@@H]4C[C@@H](O)C5=CC(=O)C=C[C@]5(C)[C@H]4[C@@H](O)C[C@@]32C)O1 [6β-OH-21-desDFZ] | roughly 1.25 fold | ~1.30 fold | roughly 1.25 Fold | roughly 1.25 Fold | 1.72 h | ≤ 0.5 h | 1.63 h |  |  |  | 
CC1=N[C@]2(C(=O)CO)[C@@H](C[C@H]3[C@@H]4CCC5=CC(=O)C=C[C@]5(C)[C@H]4[C@@H](O)C[C@@]32C)O1 [21-desDFZ, 21-desacetyldeflazacort] | almost double | 1.5 fold |  |  | 1.34 h | ≤ 0.5 h | 1.17 h | 67% | no differences | no differences | 
CC(=O)OCC(=O)[C@@]12N=C(C)O[C@@H]1C[C@H]1[C@@H]3CCC4=CC(=O)C=C[C@]4(C)[C@H]3[C@@H](O)C[C@@]12C [deflazacort, (11β,16β)-21-(acetyloxy)-11-hydroxy-2′-methyl-5′H-pregna-1,4-dieno[17,16-d]oxazole-3,20-dione] |  |  |  |  |  |  |  |  |  |  | improves muscle strength
